Source: patent publication US12697316B2, “Combination therapy with acetyl-leucine and miglustat” (INTRABIO LTD., priority 2019, dated 2026)

Tested on: GM2 gangliosidosis patients
Assay: Observational case series in GM2 gangliosidosis patients
Type: in vivo, human
Details: three GM2 gangliosidosis patients
Method: Observational studies in GM2 gangliosidosis Patients: In a prospective observational case series in three patients with genetically proven GM2 gangliosidoses (2 patients with Tay-Sachs disease, 1 patient with Sandhoff disease) the symptomatic effects of ADLL was evaluated. Patients were treated with 0.1 g per kg body weight per day, for at least four weeks and the clinical effects determined using the Scale for the Assessment and Severity of Ataxia (SARA), the 8-meter walk test (8MWT) and the Montreal Cognitive Assessment (MoCA). Consent from all participants was obtained.
A patient with a genetically confirmed diagnosis of Tay-Sachs disease presented with dysarthrophonia, tremor, ataxia of stance and gait, paraparesis, and muscular atrophy. Prior to treatment, the patient required the support of both a caregiver on one side and a wall on the other in order to walk down a corridor. The patient was receiving sodium-valproate (500 mg/d), lithium (450 mg/d), and risperidone (3 mg/d) (medications for clinically diagnosed bipolar disorder), and continued to do so during treatment with N-Acetyl-DL-Leucine. The patient was also receiving physiotherapy, ergotherapy, and logotherapy twice a week.
A patient with a genetically confirmed diagnosis of Tay-Sachs disease presented with ataxia of stance and gait, fine motor impairment, paraparesis of lower extremities and muscular atrophy. They were receiving physiotherapy, ergotherapy and logotherapy and continued to do so during treatment with N-Acetyl-DL-Leucine.
A patient suffering from Sandhoff disease, with muscle hypotrophy, epileptic cramps (tonic-clonic, about 10 seconds, self-limiting), disordered ocular movement and anarthria. Their daily activities were very limited, being unable to eat, wash, or dress themself. They were receiving levetiracetam (1 g/d), lamotrigine (100 mg/d), omeprazole (20 mg/d), and miglustat (300 mg/d), in addition to physiotherapy, ergotherapy and logotherapy, and continued to do so during treatment with N-Acetyl-DL-Leucine.

[1] = 0.1 g per kg body weight per day, baseline vs one month on medication

## CC(=O)NC(CC(C)C)C(=O)O (racemic) [ADLL, N-acetyl-DL-leucine]
  improvement reported by patients and caregivers: subjective improvement
[1]
  mean improvement of the 8-M-Walking-Test (8MWT): 17.8%
  mean improvement of the Montreal Cognitive Assessment (MoCA): 42%
  mean improvement of the Scale for Assessment and Rating of Ataxia (SARA): 20.3%
